From PMC10811509 (Advanced Science, 2023)
No end group written: not given here.

Legend:
Aβ40 = molecular target: T1, Aβ40 (Homo sapiens, UniProt P05067); test: ITC, APP‐C31 binding to Aβ40; conditions: read-out: binding affinity (Kd)
T1 construct: purchased Peptide Institute, Inc. (Osaka, Japan) or Anaspec (Fremont, CA, USA)
Description: Titration experiments composed of 28 injections were conducted. The injection volume was 2 µL for the first injection to minimize effects of bubbles and 10 µL for the remaining injections. […] The initial delay was 1800 s and the reference power was 10 µcal s^−1. […] The binding isotherms after baseline correction were fitted to the one set of sites binding model incorporated in the MicroCal Origin 7.0 software.^[ [84] ^]
Figure S10. Interaction of Ab40 with APP-C31 monitored by ITC. The ITC thermogram (upper panel) and binding isotherm (lower panel) were obtained upon titration of APP-C31 into Ab40. The Kd value was calculated from three independent measurements. Conditions: [Ab40] = 30 µM; [APP-C31] = 600 µM; 20

SH‐SY5Y cells [1] = test: Cell viability after microinjection
Description: (§1) Cell survival measurements were described in detail in the experimental section. […] White arrows indicate apoptotic cells microinjected with peptide samples. […] Scale bar = 100 µm.
Experiments were performed at least in triplicate.

SH‐SY5Y cells [2] = test: Annexin V staining (apoptosis) after microinjection; conditions: 24 h; for Pearson's coefficient (r), annexin V / Texas Red‐labeled dextran: n = 3–5
Description: as §1
After 24 h incubation, the cells were washed with annexin‐binding buffer and stained with annexin V‐Alexa Fluor 488 for detecting apoptosis following the manufacturer's instruction (FITC Annexin V/Dead Cell Apoptosis Kit; V13241, Invitrogen). Fluorescent responses of annexin V and Texas Red‐labeled dextran were identified by a microscope with a GFP light cube [excitation at 470 (±22) nm and emission at 525 (±50) nm] and a Cy5 light cube [excitation at 628 (±40) nm and emission at 685 (±40) nm], respectively. At least five randomly selected fields per conditions were captured with a microscope. Pearson's correlation coefficient for the indication of co‐localization was calculated with the Coloc2 plugin in Fiji software.^[ [79] ^]

[3] = tested on: human neurons differentiated from H9 human embryonic stem cells; test: Neurite outgrowth in human neurons; format: cell-based
Description: Human neurons were differentiated from neural progenitor cells (NPCs), which are derived from human embryonic stem cells (hESCs), WA09 (also known as H9). hESCs were maintained on inactivated mouse embryonic fibroblasts (MEFs) in hESC‐media comprising DMEM/F12 (GIBCO) with MEM non‐essential amino acids (MEM NEAA; GIBCO), sodium bicarbonate (14 mM; Sigma‐Aldrich), L‐glutamine (1 mM; Sigma‐Aldrich), β‐mercaptoethanol (100 µM; Merck Millipore, Billerica, MA, USA), knockout serum replacement (20% v/v; GIBCO), and bFGF (10 ng mL^−1; R&D systems, McKinley Place, MN, USA). MEFs were collected from E13.5 CrljOri:CD1 (ICR) mice (Orientbio, Seongnam, Republic of Korea) and inactivated with 10 µg mL^−1 of mitomycin C (AG Scientific, San Diego, CA, USA) in 2 h. hESC colonies were dissociated with Collagenase IV and plated onto Petri dishes in hESC‐media to form embryoid bodies (EBs). […] The treatment was continued for a week, followed by plating onto growth factor reduced matrigel (BD biosciences)‐coated dishes in DMEM/F12 + glutamax (GIBCO) with N2 and B27 supplements (N2/B27 media) and laminin (1 mg mL^−1; GIBCO). […]
Human NPCs were differentiated into neurons for 2 d and the media was replaced by fresh media. […] The neurite of a neuron measured from the soma to the tip was analyzed using Neuron J program of Fiji software.^[ [81] ^]

[4] = tested on: Aβ in hippocampi of C57BL/6J mice; test: Immunohistochemistry of hippocampus after stereotaxic peptide injection, Aβ (6E10, thioflavin‐S); format: in vivo, mouse; conditions: hippocampal injection of Aβ40 (100 µM) and APP‐C31 (200 µM), 1 µL; 10 days; n = 3
[5] = tested on: Iba1‐positive microglial cells in hippocampi of C57BL/6J mice; test: Immunohistochemistry of hippocampus after stereotaxic peptide injection, microglia (Iba1); format: in vivo, mouse; conditions: hippocampal injection of Aβ40 (100 µM) and APP‐C31 (200 µM), 1 µL; 10 days; n = 5
Description: 15 neurons were analyzed per each condition. […] Scale bar = 100 µm. […] Scale bar = 200 µm. f) Quantification results of the 6E10‐positive area and Iba1‐positive cells, calculated based on the fluorescence signals.
All experiments were performed in accordance with approved animal protocols and guidelines established by Korea Research Institute of Bioscience and Biotechnology (KRIBB). C57BL/6J (11 weeks old; 30 g) were anesthetized by the intraperitoneal injection of tribromoethanol (320 mg kg^−1, i.p.) and positioned in a stereotaxic apparatus. […] All infusions were given using a Hamilton syringe equipped with a 26‐gauge beveled needle and attached to a Nanojet stereotaxic syringe pump (Chemyx, Inc., TX, USA). Infusions were delivered at a rate of 0.2 µL min^−1. […]
Mice were perfused with phosphate‐buffered saline (GIBCO) and 4% paraformaldehyde (PFA) solution, and then the brains were post‐fixed with 4% PFA overnight and dehydrated with 30% sucrose solution. […] Immunofluorescence staining was performed as previously described^[ [83] ^] using anti‐Aβ antibody (6E10; 1:1,000), anti‐APP antibody (Y188; 1:500), anti‐Iba1 antibody (1:1,000, Wako Life Sciences Inc., Japan), an appropriate fluorescence‐conjugated secondary antibody, and Hoechst 33 258 (1:10,000; Life Technologies, CA, USA) for counterstaining. […]

[6] = APP‐C31 (10 µM) or Aβ40 (10 µM) alone

T1 sequence (P05067 672-711): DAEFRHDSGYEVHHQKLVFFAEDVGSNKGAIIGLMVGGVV

AAVTPEERHLSKMQQNGYENPTYKFFEQMQN [APP‐C31]
Kd (Aβ40): 150 µM
cell viability (SH‐SY5Y cells [1]; 10 µM): 86%
cell viability (SH‐SY5Y cells [1]; Cu(II)–Aβ40 (10 µM) with APP‐C31 (10 µM), 24 h, n = 3–5): 78%
green fluorescence of annexin V (SH‐SY5Y cells [2]; [6]): did not significantly show the green fluorescence of annexin V
Pearson's coefficient (r), annexin V / Texas Red‐labeled dextran (SH‐SY5Y cells [2]; [6]): ≈ 0.2
green fluorescence of annexin V (SH‐SY5Y cells [2]; both APP‐C31 (10 µM) and Aβ40 (10 µM)): intense green fluorescence of annexin V
Pearson's coefficient (r), annexin V / Texas Red‐labeled dextran (SH‐SY5Y cells [2]; both APP‐C31 (10 µM) and Aβ40 (10 µM), **p < 0.01): ≈ 0.6
averaged neurite length ([3]; Aβ40 20 µM with stoichiometric or suprastoichiometric APP‐C31, 24 h): further decreased
neurite morphology ([3]; Aβ40 20 µM with various concentrations of APP‐C31, 72 h): fragmentation of neurites
6E10‐positive area vs Aβ40 alone [4]: significantly enhanced
number of Iba1‐positive microglial cells vs Aβ40 only [5]: 3.7 fold
